Data reported in PubChem BioAssay (NCI).
“And” between values parts separate entries of the source, which are not always exact repeats. Equal entries are not always repeated.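 Following 48 hours of exposure in 96-well plates, responses at five concentrations were used to interpolate endpoints linearly. Here, GI50 denotes the concentration required for 50% inhibition of growth. At the TGI there is no net growth.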

How the values were obtained:
Test in all cases: NCI-60 cell line screen, 48 h
NCI-H460 lung = test system: NCI-H460 lung
UO-31 renal = test system: UO-31 renal
A549 NSCLC = test system: A549 NSCLC
CAKI-1 renal = test system: CAKI-1 renal
MOLT-4 leukemia = test system: MOLT-4 leukemia
K-562 leukemia = test system: K-562 leukemia
OVCAR-3 ovarian = test system: OVCAR-3 ovarian
EKVX NSCLC = test system: EKVX NSCLC
ACHN renal = test system: ACHN renal
HS 578T breast = test system: HS 578T breast

Structure (SMILES) | TGI (NCI-H460 lung) [µM] | TGI (UO-31 renal) [µM] | TGI (A549 NSCLC) | TGI (CAKI-1 renal) | TGI (MOLT-4 leukemia) [µM] | TGI (K-562 leukemia) | TGI (OVCAR-3 ovarian) [µM] | TGI (EKVX NSCLC) [µM] | TGI (ACHN renal) [µM] | GI50 (NCI-H460 lung) [µM] | GI50 (A549 NSCLC) | GI50 (MOLT-4 leukemia) [µM] | GI50 (K-562 leukemia) [µM] | GI50 (OVCAR-3 ovarian) | TGI (HS 578T breast) [µM] | GI50 (UO-31 renal) [µM] | GI50 (EKVX NSCLC) | GI50 (ACHN renal) [µM]
O=C1NC2(NC(=O)C1=O)Nc1ccccc1S2 | > 100 | > 95.4 | > 100 µM | > 100 µM | > 92.5 | > 64.7 µM | > 100 | > 100 | > 76.1 | – | – | – | – | – | – | – | – | –
Nc1nccc2c1ncn2C1C=C(CO)C(O)C1O (stereo not given) | > 1000 | – | > 1000 µM | – | > 1000 | > 1000 µM | > 1000 | – | – | 0.578 | > 1000 µM | 0.768 | 0.249 | 136 µM | – | – | – | –
Cc1ccc([S+](c2ccccc2)c2cc(C)ccc2C)cc1 (stereo not given) | > 100 | > 100 | > 100 µM | > 100 µM | > 100 | > 100 µM | > 100 | > 100 | > 100 | – | – | – | – | – | – | – | – | –
O=[P+](O)c1cccs1 | > 100 | > 100 | > 100 µM | > 100 µM | > 100 | > 100 µM | – | > 100 | > 100 | – | – | – | – | – | – | – | – | –
Oc1ccc(NCc2cc(O)ccc2O)cc1 | 39.1 | 29.4 | > 100 µM | 34.9 µM | 7.81 | 55.2 µM | 32 | 31.2 | 29.6 | – | – | – | – | – | > 100 | – | – | –
O=NN(CCCl)C(=O)Nc1ccc(Cl)c(Cl)c1 | > 100 | 99.3 | > 100 µM | > 100 µM | > 100 | > 100 µM | > 100 | > 100 | – | – | – | – | – | – | – | – | – | –
COC[C@@H]1Cc2cc(OC)c3c(c2[C@H](c2ccc(OC)c(OC)c2)[C@H]1COC)OCO3 | > 100 | > 100 | > 100 µM | – | > 100 | – | > 100 | > 100 | > 100 | – | – | – | – | – | – | – | – | –
CCOC(=O)c1c(SC)nc(-c2ccc(Cl)cc2)sc1=N | > 100 | > 100 | > 100 µM | > 100 µM | 94 | > 100 µM | > 100 | 55.2 | > 100 | – | – | – | – | – | > 100 | – | – | –
COc1cc(CCC(=O)O)c2cc3ccccc3cc2c1O | 47.2 | 35.7 | 52.6 µM | 33.8 µM | 21.9 | 42.4 µM | 51.7 | 53.1 | 32.2 | – | – | – | – | – | > 100 | – | – | –
O=C1CC(NCCCNC2CC(=O)c3c(Br)sc(Br)c32)c2c(Br)sc(Br)c21 (stereo not given) | > 100 | – | > 100 µM | 3.77 µM | 1.21 | – | – | 4.8 | 3.55 | – | – | – | – | – | > 44.6 | – | – | –
CC(=O)C1=C(C)N(c2ccc(C)cc2)C2(O)C=CC(=O)C3=C(O)c4ccccc4C(=O)C312 (stereo not given) | > 100 | 34.8 | > 100 µM | 35.8 µM | > 100 | > 100 µM | 16.1 | 61.2 | 36.8 | – | – | – | – | – | > 100 | – | – | –
Nc1cccc(/C=C/CN2CCN(CCOC(c3ccccc3)c3ccccc3)CC2)c1 | 27.7 | 27.4 | 29.7 µM | 34.1 µM | 19.2 | 16.3 µM | 29.1 | 32 | 32.2 | – | – | – | – | – | 48 | – | – | –
CC1C(O)[C@@]2(OC[C@@]34C(=O)CC5(O)[C@H](CCC6Cc7nc8c(nc7C[C@]65C)CC5CC[C@@H]6C7=C[C@H]9O[C@@]%10(O[C@@](C)(CO)C[C@@H]%10O)C(C)[C@@]9(O)[C@]7(C)[C@@H](O)CC6[C@]5(C)C8)C3=CC[C@H]4C2C)OC1(C)C (stereo not given in full) | 0.0937 | 0.134 | 0.494 µM | 0.977 µM | < 0.000355 | 0.0798 µM | > 3.55 | 0.499 | – | – | – | – | – | – | – | – | – | –
Cc1ccc(NC(=O)CC(=O)n2nc(-c3ccccc3)c(N=Nc3ccccc3C(=O)O)c2-c2ccccc2)cc1 | – | > 100 | > 100 µM | > 100 µM | > 100 | > 100 µM | > 100 | > 100 | > 100 | – | – | – | – | – | – | – | – | –
COc1cccc2c1C(=O)c1c(O)c3c(c(O)c1C2=O)C[C@@](O)(C(C)=O)C[C@@H]3OC1CC(N(C)C)C(O)C(C)O1 (stereo not given in full) | – | – | 0.423 µM and 1.65 µM | 0.56 µM and 0.593 µM | – | 1.09 µM and 0.182 µM | – | – | – | 0.00786 | 0.0816 µM and 0.035 µM | 0.00495 | 0.00456 | 0.108 µM and 0.155 µM | 0.0011 | 0.0561 | 0.126 µM and 0.0588 µM | 0.00902
CN(CCNC(=O)c1cn(C)c2c1ccc1cc(Cl)ccc12)CCNC(=O)c1cn(C)c2c1ccc1cc(Cl)ccc12 | > 100 | 2.94 | – | 4.99 µM | 11.3 | 13.6 µM | 6.43 | 4.04 | 9.73 | – | – | – | – | – | 4.25 | – | – | –
